Legend:
redroot pigweed [1] = test: Test Example 1: foliage treatment, upland pot test; format: in vivo, Amaranthus retroflexus L.; conditions: active ingredient 500 g/ha, observed 18th to 23rd day, 0 = non-treated, 100 = complete kill
crabgrass [2] = test: Test Example 1: foliage treatment, upland pot test; format: in vivo, Digitaria sanguinalis L.; conditions: active ingredient 500 g/ha, observed 18th to 23rd day, 0 = non-treated, 100 = complete kill
prickly sida [3] = test: Test Example 2: soil surface treatment, upland pot test; format: in vivo, Sida spinosa L.; conditions: active ingredient 500 g/ha, observed 20th to 28th day
How it was run: (§1)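 A pre-emergence soil application: formulated compound at a predetermined active-ingredient dose, diluted in water to 1,500 L/ha, sprayed on upland soil a day after seeding in 1/170,000 ha pots; growth control rated visually, 0 (untreated level) to 100 (kill), at 20–28 days.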

redroot pigweed [4] = test: as above; format: in vivo, Amaranthus retroflexus L.; conditions: active ingredient 500 g/ha, observed 20th to 28th day
How it was run: as §1

green foxtail [5] = test: Test Example 1: foliage treatment, upland pot test; format: in vivo, Setaria viridis L.; conditions: active ingredient 500 g/ha, observed 18th to 23rd day, 0 = non-treated, 100 = complete kill
japanese bulrush = test: Test Example 3: paddy pot test, application under submerged conditions; format: in vivo, Scirpus juncoides; conditions: submerged application at 0.5 leaf stage, visually observed 14 days after application, 0 = non-treated, 100 = complete kill
How it was run: (§2)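 Visual rating of growth control (0% equals untreated, 100% complete kill) made 14 days after treatment. Compound, formulated as wettable powder or emulsifiable concentrate and diluted in water, was pipetted under submerged conditions at predetermined active-ingredient doses once weeds reached 0.5-leaf (barnyardgrass, bulrush) or primary-leaf (wapato, from tubers) stage. Pots of greenhouse paddy soil held 3–4 cm flooding.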

barnyardgrass [6] = test: Test Example 1: foliage treatment, upland pot test; format: in vivo, Echinochloa crus-galli L.; conditions: active ingredient 500 g/ha, observed 18th to 23rd day, 0 = non-treated, 100 = complete kill
How it was run: (§3)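 Visual growth-control scores (0 = untreated, 100 = complete kill) were taken 18–23 days after foliar spraying of a wettable powder or emulsifiable concentrate, diluted in 500 L/ha water with 0.1% (v/v) spreader. Treatment leaf stages: barnyardgrass 1.3–2.8, rice 1.2–2.6, wheat 1.3–2.4, soybean 0.1–0.4.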

barnyardgrass [7] = test: Test Example 2: soil surface treatment, upland pot test; format: in vivo, Echinochloa crus-galli L.; conditions: active ingredient 500 g/ha, observed 20th to 28th day
How it was run: as §1

prickly sida [8] = test: Test Example 1: foliage treatment, upland pot test; format: in vivo, Sida spinosa L.; conditions: active ingredient 500 g/ha, observed 18th to 23rd day, 0 = non-treated, 100 = complete kill
barnyardgrass [9] = test: Test Example 3: paddy pot test, application under submerged conditions; format: in vivo, Echinochloa crus-galli L.; conditions: submerged application at 0.5 leaf stage, visually observed 14 days after application, 0 = non-treated, 100 = complete kill
How it was run: as §2

velvetleaf [10] = test: Test Example 2: soil surface treatment, upland pot test; format: in vivo, Abutilon theophrasti MEDIC.; conditions: active ingredient 500 g/ha, observed 20th to 28th day
How it was run: as §1

corn [11] = test: Test Example 1: foliage treatment, upland pot test; format: in vivo, Zea mays L.; conditions: crop, active ingredient 500 g/ha, observed 18th to 23rd day, 0 = non-treated, 100 = complete kill
How it was run: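 In this upland pot foliage test, corn plants at 2.1 to 3.2 leaf stages were sprayed by a small size sprayer. The spray was a conventionally formulated wettable powder or emulsifiable concentrate weighed to a set active ingredient amount, diluted in water at 500 L/ha, plus 0.1% (v/v) agricultural spreader. Visual assessment on days 18 to 23 gave growth controlling degree (%), where 0 equals untreated and 100 means complete kill.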

rice [12] = test: Test Example 1: foliage treatment, upland pot test; format: in vivo, Oryza sativa L.; conditions: crop, active ingredient 500 g/ha, observed 18th to 23rd day, 0 = non-treated, 100 = complete kill
How it was run: as §3

wheat [13] = test: Test Example 2: soil surface treatment, upland pot test; format: in vivo, Triticum spp.; conditions: active ingredient 500 g/ha, observed 20th to 28th day
How it was run: as §1

rice (var. Nihonbare) = test: Test Example 3: paddy pot test, transplanted rice; format: in vivo, Oryza sativa L.; conditions: applied 4th day after transplantation, visually observed 21st day after application, 0 = non-treated, 100 = complete kill
How it was run: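 Visual crop-injury rating (0 = as untreated, 100 = complete kill, %) taken 21 days post-application. Treatment: formulated compound, water-diluted, pipetted into 3–4 cm flood water at a preset active-ingredient dose, 4 days after transplanting 2-leaf Nihonbare rice 3 cm deep in puddled paddy soil.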

crabgrass [14] = test: Test Example 2: soil surface treatment, upland pot test; format: in vivo, Digitaria sanguinalis L.; conditions: active ingredient 500 g/ha, observed 20th to 28th day
How it was run: as §1

soybean [15] = test: Test Example 1: foliage treatment, upland pot test; format: in vivo, Glycine max Merr.; conditions: crop, active ingredient 500 g/ha, observed 18th to 23rd day, 0 = non-treated, 100 = complete kill
How it was run: as §3

wheat [16] = test: Test Example 1: foliage treatment, upland pot test; format: in vivo, Triticum spp.; conditions: crop, active ingredient 500 g/ha, observed 18th to 23rd day, 0 = non-treated, 100 = complete kill
Text: Upland field soil was put into a 1/170,000 ha pot, and seed of various plants were sown. Then, when the plants reached predetermined leaf stages ((1) barnyardgrass: 1.3 to 2.8 leaf stages, (2) crabgrass: 1.0 to 2.8 leaf stages, (3) green foxtail: 1.3 to 2.6 leaf stages, (4) redroot pigweed: 0.1 to 1.2 leaf stages, (5) prickly sida: 0.1 to 1.2 leaf stages, (6) velvetleaf: 0.1 to 1.2 leaf stages, (7) tall morningglory: 0.1 to 1.5 leaf stages, (8) rice: 1.2 to 2.6 leaf stages, (9) wheat: 1.3 to 2.4 leaf stages, (10) corn, 2.1 to 3.2 leaf stages, (11) soybean: 0.1 to 0.4 leaf stage), a wettable powder or emulsifiable concentrate having the compound of the present invention formulated in accordance with a usual formulation method, was weighed so that the active ingredient would be a predetermined amount, and diluted with water in an amount of 500 L/ha. To the diluted solution, 0.1% (v/v) of agricultural spreader was added. The herbicide thus adjusted was applied by a small size sprayer for foliage treatment. On the 18th to 23rd days after the application of the herbicide, the growth of the respective plants was visually observed, and the herbicidal effects were evaluated by the growth controlling degrees (%) ranging from 0 (equivalent to the non-treated plot) to 100 (complete kill), whereby the results shown in Table 3, were obtained.

soybean [17] = test: Test Example 2: soil surface treatment, upland pot test; format: in vivo, Glycine max Merr.; conditions: active ingredient 500 g/ha, observed 20th to 28th day
How it was run: as §1

velvetleaf [18] = test: Test Example 1: foliage treatment, upland pot test; format: in vivo, Abutilon theophrasti MEDIC.; conditions: active ingredient 500 g/ha, observed 18th to 23rd day, 0 = non-treated, 100 = complete kill
rice [19] = test: Test Example 2: soil surface treatment, upland pot test; format: in vivo, Oryza sativa L.; conditions: active ingredient 500 g/ha, observed 20th to 28th day
How it was run: as §1

corn [20] = test: as above; format: in vivo, Zea mays L.; conditions: active ingredient 500 g/ha, observed 20th to 28th day
How it was run: as §1

japanese ribbon wapato = test: Test Example 3: paddy pot test, application under submerged conditions; format: in vivo, Sagittaria pygniaea; conditions: active ingredient 500 g/ha; submerged application at primary leaf stage; visually observed 14 days after application; 0 = non-treated, 100 = complete kill
How it was run: as §2

green foxtail [21] = test: Test Example 2: soil surface treatment, upland pot test; format: in vivo, Setaria viridis L.; conditions: active ingredient 500 g/ha, observed 20th to 28th day
How it was run: as §1

Compound | Growth controlling degree (%) Redroot pigweed (redroot pigweed [1]) [%] | Growth controlling degree (%) Crabgrass (crabgrass [2]) [%] | Growth controlling degree (%) Prickly sida (prickly sida [3]) [%] | Growth controlling degree (%) Redroot pigweed (redroot pigweed [4]) [%] | Growth controlling degree (%) Green foxtail (green foxtail [5]) [%] | Growth controlling degree (%) Barnyardgrass (barnyardgrass [6]) [%] | Growth controlling degree (%) Barnyardgrass (barnyardgrass [7]) [%] | Growth controlling degree (%) Prickly sida (prickly sida [8]) [%] | Growth controlling degree (%) Velvetleaf (velvetleaf [10]) [%] | Growth controlling degree (%) Corn (corn [11]) [%] | Growth controlling degree (%) Rice (rice [12]) [%] | Growth controlling degree (%) Crabgrass (crabgrass [14]) [%] | Growth controlling degree (%) Soybean (soybean [15]) [%] | Growth controlling degree (%) wheat (wheat [16]) [%] | Growth controlling degree (%) Soyabean (soybean [17]) [%] | Growth controlling degree (%) Velvetleaf (velvetleaf [18]) [%] | Growth controlling degree (%) Rice (rice [19]) [%] | Growth controlling degree (%) Corn (corn [20]) [%] | Growth controlling degree (%) Japanese bulrush (japanese bulrush; active ingredient 500 g/ha) [%] | Growth controlling degree (%) Barnyardgrass (barnyardgrass [9]; active ingredient 500 g/ha) [%] | also measured
CC(Oc1ccc(Br)cc1)C(=O)N(C)C(c1cnccc1C(F)(F)F)C(C)C (mixture of isomers) [I-132] | 70 | 90 | 70 | 10 | 60 | 70 | 98 | 80 | 0 | 80 | 10 | 90 | 80 | 10 | 10 | 60 | 10 | 0 | – | – | Growth controlling degree (%) Japanese bulrush (japanese bulrush; active ingredient 250 g/ha): 80%; Growth controlling degree (%) Barnyardgrass (barnyardgrass [9]; active ingredient 250 g/ha): 100%; Growth controlling degree (%) wheat (wheat [13]): 10%; Growth controlling degree (%) Rice (rice (var. Nihonbare); active ingredient 250 g/ha): 20%
CCCC(=O)N(C)C(c1cnccc1C(F)(F)F)C(C)C (stereo not shown) [I-189, N-methyl-N-[2-methyl-1-(4-trifluoromethylpyridin-3-yl)propyl]butanamide] | 80 | 98 | 90 | 100 | 90 | 90 | 100 | 85 | 90 | 90 | 80 | 100 | 80 | 70 | 95 | 70 | 100 | 50 | 98 | 100 | Growth controlling degree (%) Japanese ribbon wapato (japanese ribbon wapato): 95%; Growth controlling degree (%) Rice (rice (var. Nihonbare); active ingredient 500 g/ha): 95%; Growth controlling degree (%) Green foxtail (green foxtail [21]): 100%
C=CC(=O)N(C)C(c1cnccc1C(F)(F)F)C(C)C (stereo not shown) [I-190] | 70 | 80 | 90 | 80 | 80 | 80 | 100 | 70 | 50 | 70 | 70 | 100 | 60 | 70 | 30 | 60 | 98 | 10 | 98 | 100 | Growth controlling degree (%) Japanese ribbon wapato (japanese ribbon wapato): 90%; Growth controlling degree (%) Rice (rice (var. Nihonbare); active ingredient 500 g/ha): 95%; Growth controlling degree (%) Green foxtail (green foxtail [21]): 100%
CC(C)C(c1cnccc1C(F)(F)F)N(C)C(=O)Cc1csc2ccccc12 (stereo not shown) [I-192] | 80 | – | 0 | 10 | 60 | 80 | 98 | 90 | 0 | – | 10 | 80 | 80 | 0 | – | 70 | 10 | 10 | 90 | 100 | Growth controlling degree (%) wheat (wheat [13]): 0%; Growth controlling degree (%) Rice (rice (var. Nihonbare); active ingredient 500 g/ha): 30%; Growth controlling degree (%) Green foxtail (green foxtail [21]): 80%

Source: patent US20050239656A1, “Pyridine compounds or salts thereof and herbicides containing the same” (priority 2002, published 2005)
